Reference: publication PMC5218480 (PLoS ONE, 2017)

Test system: MV-4-11 cells
Test: Gene expression microarray analysis (Affymetrix PrimeView) and GSEA
Type: cell-based, human
Design: RFU PODN (11730768_x_at) / Fold change /veh PODN (11730768_x_at) / RFU LINC00158 (11744669_a_at) / Fold change /veh LINC00158 (11744669_a_at) / RFU DUSP10 (11751237_a_at) / Fold change /veh DUSP10 (11751237_a_at) / RFU ID3 (11757404_x_at) / Fold change /veh ID3 (11757404_x_at) / RFU PLEKHG5 (11737974_s_at) / Fold change /veh PLEKHG5 (11737974_s_at) / RFU LRRC4B (11730491_at) / Fold change /veh LRRC4B (11730491_at) / RFU GIMAP4 (11747438_a_at) / Fold change /veh GIMAP4 (11747438_a_at) / RFU KRT8 (11758183_x_at) / Fold change /veh KRT8 (11758183_x_at) / RFU CNN1 (11734310_a_at) / Fold change /veh CNN1 (11734310_a_at) / RFU VPS37D (11726825_at) / Fold change /veh VPS37D (11726825_at) / RFU C10orf10 (11716522_x_at) / Fold change /veh C10orf10 (11716522_x_at) / RFU KIR2DL2 /// KIR2DL4 /// KIR2DL5A /// KIR2DL5B /// KIR2DS1 /// KIR2DS2 /// KIR2DS3 /// KIR2DS4 /// KIR3DL3 /// KIR3DL3 /// KIR3DS1 (11738374_at) / Fold change /veh KIR2DL2 /// KIR2DL4 /// KIR2DL5A /// KIR2DL5B /// KIR2DS1 /// KIR2DS2 /// KIR2DS3 /// KIR2DS4 /// KIR3DL3 /// KIR3DL3 /// KIR3DS1 (11738374_at) / RFU C1QL1 (11718748_at) / Fold change /veh C1QL1 (11718748_at) / RFU TMPRSS4 (11747572_a_at) / Fold change /veh TMPRSS4 (11747572_a_at) / RFU HAMP (11756126_x_at) / Fold change /veh HAMP (11756126_x_at) / RFU RNFT2 (11725882_a_at) / Fold change /veh RNFT2 (11725882_a_at) / RFU NR4A2 (11747474_a_at) / Fold change /veh NR4A2 (11747474_a_at) / RFU ABCC12 (11746883_a_at) / Fold change /veh ABCC12 (11746883_a_at) / RFU TMEM136 (11760407_x_at) / Fold change /veh TMEM136 (11760407_x_at) / RFU CLDN22 /// WWC2 (11732394_at) / Fold change /veh CLDN22 /// WWC2 (11732394_at) / RFU HLA-DPB1 (11760878_x_at) / Fold change /veh HLA-DPB1 (11760878_x_at) / RFU SPINT1 (11716480_a_at) / Fold change /veh SPINT1 (11716480_a_at) / RFU GAP43 (11754022_s_at) / Fold change /veh GAP43 (11754022_s_at) / RFU A4GNT (11735810_at) / Fold change /veh A4GNT (11735810_at) / RFU PRB3 (11715151_x_at) / Fold change /veh PRB3 (11715151_x_at) / RFU TUBB4B (11761932_at) / Fold change /veh TUBB4B (11761932_at) / RFU CAPN14 (11732068_a_at) / Fold change /veh CAPN14 (11732068_a_at) / RFU TMCC2 (11721928_a_at) / Fold change /veh TMCC2 (11721928_a_at) / RFU IRGQ (11745062_a_at) / Fold change /veh IRGQ (11745062_a_at) / RFU FAM174B (11720279_a_at) / Fold change /veh FAM174B (11720279_a_at) / RFU TMPRSS4 (11748680_a_at) / Fold change /veh TMPRSS4 (11748680_a_at) / RFU FAM212B (11763350_a_at) / Fold change /veh FAM212B (11763350_a_at) / RFU PLEKHG5 (11743358_a_at) / Fold change /veh PLEKHG5 (11743358_a_at) / RFU ZSCAN30 (11745921_a_at) / Fold change /veh ZSCAN30 (11745921_a_at) / RFU CMKLR1 (11741424_a_at) / Fold change /veh CMKLR1 (11741424_a_at) / RFU LOC101060620 /// MAPK8IP1 (11723275_at) / Fold change /veh LOC101060620 /// MAPK8IP1 (11723275_at) / RFU SPTSSB (11747773_x_at) / Fold change /veh SPTSSB (11747773_x_at) / RFU PRSS12 (11739890_at) / Fold change /veh PRSS12 (11739890_at) / RFU BIN1 (11741810_x_at) / Fold change /veh BIN1 (11741810_x_at) / RFU WNT11 (11732464_a_at) / Fold change /veh WNT11 (11732464_a_at) / RFU C10orf10 (11716521_a_at) / Fold change /veh C10orf10 (11716521_a_at) / RFU C5orf56 (11738089_at) / Fold change /veh C5orf56 (11738089_at) / RFU CYB561 (11721691_x_at) / Fold change /veh CYB561 (11721691_x_at) / RFU ANKRD19P (11752326_a_at) / Fold change /veh ANKRD19P (11752326_a_at) / RFU OR2T12 /// OR2T33 /// OR2T8 (11738714_s_at) / Fold change /veh OR2T12 /// OR2T33 /// OR2T8 (11738714_s_at) / RFU VCAN (11748164_a_at) / Fold change /veh VCAN (11748164_a_at) / RFU JSRP1 (11732532_at) / Fold change /veh JSRP1 (11732532_at) / RFU KRTAP10-11 (11738290_x_at) / Fold change /veh KRTAP10-11 (11738290_x_at) / RFU MYO3A (11730013_a_at) / Fold change /veh MYO3A (11730013_a_at) / RFU EBF3 (11725865_a_at) / Fold change /veh EBF3 (11725865_a_at) / RFU CAMK2N1 (11719241_x_at) / Fold change /veh CAMK2N1 (11719241_x_at) / RFU C5orf56 (11738088_a_at) / Fold change /veh C5orf56 (11738088_a_at) / RFU OLFML3 (11715873_a_at) / Fold change /veh OLFML3 (11715873_a_at) / RFU LOC100653217 /// NTM (11731650_a_at) / Fold change /veh LOC100653217 /// NTM (11731650_a_at) / RFU MAPK11 (11762145_a_at) / Fold change /veh MAPK11 (11762145_a_at) / RFU FIZ1 (11724087_x_at) / Fold change /veh FIZ1 (11724087_x_at) / RFU OASL (11726364_x_at) / Fold change /veh OASL (11726364_x_at) / RFU SOX15 (11748057_x_at) / Fold change /veh SOX15 (11748057_x_at) / RFU CD79A (11719716_a_at) / Fold change /veh CD79A (11719716_a_at) / RFU HIST1H1D (11736915_at) / Fold change /veh HIST1H1D (11736915_at) / RFU CASKIN2 (11723855_a_at) / Fold change /veh CASKIN2 (11723855_a_at) / RFU LOC730098 (11760151_x_at) / Fold change /veh LOC730098 (11760151_x_at) / RFU OR4N2 (11742367_at) / Fold change /veh OR4N2 (11742367_at) / RFU PRRT2 (11749266_a_at) / Fold change /veh PRRT2 (11749266_a_at) / RFU SNX32 (11753110_a_at) / Fold change /veh SNX32 (11753110_a_at) / RFU CDHR5 (11726645_a_at) / Fold change /veh CDHR5 (11726645_a_at) / RFU RCAN1 (11760418_a_at) / Fold change /veh RCAN1 (11760418_a_at) / RFU FAM167A (11723789_a_at) / Fold change /veh FAM167A (11723789_a_at) / RFU FAM26E (11764081_at) / Fold change /veh FAM26E (11764081_at) / RFU ISYNA1 (11749810_s_at) / Fold change /veh ISYNA1 (11749810_s_at) / RFU ACY1 (11761880_at) / Fold change /veh ACY1 (11761880_at) / RFU 11764098_at / Fold change /veh 11764098_at / RFU SAMD14 (11745864_x_at) / Fold change /veh SAMD14 (11745864_x_at) / RFU NPB (11741838_a_at) / Fold change /veh NPB (11741838_a_at) / RFU TMPRSS6 (11731388_a_at) / Fold change /veh TMPRSS6 (11731388_a_at) / RFU KRTAP10-2 (11738614_at) / Fold change /veh KRTAP10-2 (11738614_at) / RFU ARHGAP8 /// PRR5-ARHGAP8 (11727945_x_at) / Fold change /veh ARHGAP8 /// PRR5-ARHGAP8 (11727945_x_at) / RFU KRTAP5-7 /// NADSYN1 (11734609_at) / Fold change /veh KRTAP5-7 /// NADSYN1 (11734609_at) / RFU RASL12 (11751679_a_at) / Fold change /veh RASL12 (11751679_a_at) / RFU CDKN2B (11736163_a_at) / Fold change /veh CDKN2B (11736163_a_at) / RFU PRF1 (11729649_at) / Fold change /veh PRF1 (11729649_at) / RFU, ZNF638 /// ZNF638-IT1 / Fold change vs veh, ZNF638 /// ZNF638-IT1 / RFU, PANK3 / Fold change vs veh, PANK3 / RFU, SH3YL1 / Fold change vs veh, SH3YL1 / RFU, ZEB2 / Fold change vs veh, ZEB2 / RFU, NRIP1 / Fold change vs veh, NRIP1 / RFU, PTTG1IP / Fold change vs veh, PTTG1IP / RFU, CAPN2 / Fold change vs veh, CAPN2 / RFU, MED14 / Fold change vs veh, MED14 / RFU, SNORA58 / Fold change vs veh, SNORA58 / RFU, C1orf63 / Fold change vs veh, C1orf63 / RFU, LRRFIP1 / Fold change vs veh, LRRFIP1 / RFU, NDUFAF7 / Fold change vs veh, NDUFAF7 / RFU, SLC12A2 / Fold change vs veh, SLC12A2 / RFU, IBTK / Fold change vs veh, IBTK / RFU, ESF1 / Fold change vs veh, ESF1 / Fold change vs veh, TMEM50B / RFU, TAOK1 / Fold change vs veh, TAOK1 / RFU, ACBD3 / Fold change vs veh, ACBD3 / RFU, TMA16 / Fold change vs veh, TMA16 / RFU, RWDD3 / Fold change vs veh, RWDD3 / RFU, BCAT1 / Fold change vs veh, BCAT1 / RFU, EDEM3 / Fold change vs veh, EDEM3 / RFU, TMEM33 / Fold change vs veh, TMEM33 / RFU, WDR75 / Fold change vs veh, WDR75 / RFU, AHCTF1 / Fold change vs veh, AHCTF1 / RFU, TFRC / Fold change vs veh, TFRC / RFU, ZDHHC17 / Fold change vs veh, ZDHHC17 / RFU, NOM1 / Fold change vs veh, NOM1 / RFU, ARL8B / Fold change vs veh, ARL8B / RFU, ZBTB11 / Fold change vs veh, ZBTB11 / RFU, TAMM41 / Fold change vs veh, TAMM41 / RFU, KIAA1704 /// LOC100996395 / Fold change vs veh, KIAA1704 /// LOC100996395 / RFU, ING1 / Fold change vs veh, ING1 / RFU, TRMT61B / Fold change vs veh, TRMT61B / RFU, FUBP3 / Fold change vs veh, FUBP3 / RFU, TP53 / Fold change vs veh, TP53 / RFU, TNKS2 / Fold change vs veh, TNKS2 / RFU, ZFP14 / Fold change vs veh, ZFP14 / RFU, ACTR2 / Fold change vs veh, ACTR2 / RFU, PPP3R1 / Fold change vs veh, PPP3R1 / RFU, PIK3R1 / Fold change vs veh, PIK3R1 / RFU, HNRNPA1 / Fold change vs veh, HNRNPA1 / RFU, RNF170 / Fold change vs veh, RNF170 / RFU, ZNF28 / Fold change vs veh, ZNF28 / RFU, RNGTT / Fold change vs veh, RNGTT / RFU, OGT / Fold change vs veh, OGT / RFU, BRD1 / Fold change vs veh, BRD1 / RFU, MARS / Fold change vs veh, MARS / RFU, ZNF655 / Fold change vs veh, ZNF655 / RFU, FAHD1 / Fold change vs veh, FAHD1 / RFU, BDP1 / Fold change vs veh, BDP1 / RFU, LRRCC1 / Fold change vs veh, LRRCC1 / RFU, ARID1A / Fold change vs veh, ARID1A / RFU, ZNF146 / Fold change vs veh, ZNF146 / RFU, ZNF330 / Fold change vs veh, ZNF330 / RFU, GPN3 / Fold change vs veh, GPN3 / RFU, C9orf123 / Fold change vs veh, C9orf123 / RFU, N4BP2L2 / Fold change vs veh, N4BP2L2 / RFU, ARFIP1 / Fold change vs veh, ARFIP1 / RFU, FAM179B / Fold change vs veh, FAM179B / RFU, BCL10 / Fold change vs veh, BCL10 / RFU, UHRF1BP1L / Fold change vs veh, UHRF1BP1L / RFU, BET1 / Fold change vs veh, BET1 / RFU, CNOT2 / Fold change vs veh, CNOT2 / RFU, ZNF268 / Fold change vs veh, ZNF268 / Fold change vs veh, ZNF507 / RFU, DGCR2 / Fold change vs veh, DGCR2 / RFU, WDSUB1 / Fold change vs veh, WDSUB1 / Fold change vs veh, HSP90B1 /// MIR3652 / RFU, ADSS / Fold change vs veh, ADSS / RFU, GK / Fold change vs veh, GK / RFU, ZNF148 / Fold change vs veh, ZNF148 / RFU, TAF9 / Fold change vs veh, TAF9 / RFU, SLC1A5 / Fold change vs veh, SLC1A5 / RFU, SLMO2 / Fold change vs veh, SLMO2 / RFU, ABCC4 / Fold change vs veh, ABCC4 / RFU, LOC101060439 /// RAP1B / Fold change vs veh, LOC101060439 /// RAP1B / RFU, RFX7 / Fold change vs veh, RFX7 / RFU, GTPBP10 / Fold change vs veh, GTPBP10 / RFU, CNEP1R1 / Fold change vs veh, CNEP1R1 / RFU, BIVM-ERCC5 /// ERCC5 / Fold change vs veh, BIVM-ERCC5 /// ERCC5 / RFU, ILF3 / Fold change vs veh, ILF3 / RFU 11762660_at / Fold change /veh 11762660_at / RFU VCAN (11757783_s_at) / Fold change /veh VCAN (11757783_s_at) / RFU DDX43 (11728927_at) / Fold change /veh DDX43 (11728927_at) / RFU KRT8 (11758188_x_at) / Fold change /veh KRT8 (11758188_x_at) / RFU NKD1 (11759106_at) / Fold change /veh NKD1 (11759106_at) / RFU SRD5A1 (11742802_a_at) / Fold change /veh SRD5A1 (11742802_a_at) / RFU TPSAB1 /// TPSB2 (11721975_s_at) / Fold change /veh TPSAB1 /// TPSB2 (11721975_s_at) / RFU GSTM3 (11746129_a_at) / Fold change /veh GSTM3 (11746129_a_at) / RFU IL23R (11737362_x_at) / Fold change /veh IL23R (11737362_x_at) / RFU TMEM51 (11727254_a_at) / Fold change /veh TMEM51 (11727254_a_at) / RFU PIWIL2 (11732686_x_at) / Fold change /veh PIWIL2 (11732686_x_at) / RFU ORM1 (11744905_x_at) / Fold change /veh ORM1 (11744905_x_at) / RFU CCDC152 (11743942_at) / Fold change /veh CCDC152 (11743942_at) / RFU ECM1 (11717891_a_at) / Fold change /veh ECM1 (11717891_a_at) / RFU IL23R (11748794_a_at) / Fold change /veh IL23R (11748794_a_at) / RFU TNFAIP8L3 (11732012_x_at) / Fold change /veh TNFAIP8L3 (11732012_x_at) / RFU MBOAT4 (11741988_at) / Fold change /veh MBOAT4 (11741988_at) / RFU 11764193_at / Fold change /veh 11764193_at / RFU TMEM53 (11763286_at) / Fold change /veh TMEM53 (11763286_at) / RFU MAGEB2 (11727129_at) / Fold change /veh MAGEB2 (11727129_at) / RFU TMEM200A (11744735_a_at) / Fold change /veh TMEM200A (11744735_a_at) / RFU CCDC152 (11751479_a_at) / Fold change /veh CCDC152 (11751479_a_at) / RFU FAM211A (11726209_a_at) / Fold change /veh FAM211A (11726209_a_at) / RFU RGS16 (11746705_a_at) / Fold change /veh RGS16 (11746705_a_at) / RFU VCAN (11755009_s_at) / Fold change /veh VCAN (11755009_s_at) / RFU RHOB (11743442_s_at) / Fold change /veh RHOB (11743442_s_at) / RFU RGS16 (11720943_a_at) / Fold change /veh RGS16 (11720943_a_at) / RFU RGS16 (11720944_at) / Fold change /veh RGS16 (11720944_at) / RFU, VPS4B / Fold change vs veh, VPS4B / RFU, CREB1 / Fold change vs veh, CREB1 / RFU, DNAJC13 / Fold change vs veh, DNAJC13 / RFU, GNAQ / Fold change vs veh, GNAQ / RFU, CDK5R1 / Fold change vs veh, CDK5R1 / RFU, ZRANB3 / Fold change vs veh, ZRANB3 / RFU, CUL4A / Fold change vs veh, CUL4A / RFU, CCNY / Fold change vs veh, CCNY / RFU, UFL1 / Fold change vs veh, UFL1 / RFU, COG3 / Fold change vs veh, COG3 / RFU, DIAPH2 / Fold change vs veh, DIAPH2 / RFU, SKA2 / Fold change vs veh, SKA2 / RFU, AFF3 / Fold change vs veh, AFF3 / RFU, LMF1 / Fold change vs veh, LMF1 / RFU, IPO11 / Fold change vs veh, IPO11 / RFU, DFFB / Fold change vs veh, DFFB / RFU, FOXP1 / Fold change vs veh, FOXP1 / RFU, CARD8 / Fold change vs veh, CARD8 / RFU, STRN3 / Fold change vs veh, STRN3 / RFU, ADK / Fold change vs veh, ADK / RFU, RASSF2 / Fold change vs veh, RASSF2 / RFU, WIPF1 / Fold change vs veh, WIPF1 / RFU, LARP1B / Fold change vs veh, LARP1B / RFU, RASA1 / Fold change vs veh, RASA1 / RFU, RB1 / Fold change vs veh, RB1 / RFU, PPFIA1 / Fold change vs veh, PPFIA1 / RFU, MAT2A / Fold change vs veh, MAT2A / RFU, CCT5 / Fold change vs veh, CCT5 / RFU, WDR92 / Fold change vs veh, WDR92 / RFU, CUX1 / Fold change vs veh, CUX1 / RFU, TTC7A / Fold change vs veh, TTC7A / RFU, TMEM135 / Fold change vs veh, TMEM135 / RFU, DEPTOR / Fold change vs veh, DEPTOR / RFU, CPM / Fold change vs veh, CPM / RFU, DNAJB6 / Fold change vs veh, DNAJB6 / RFU, CACNA2D3 / Fold change vs veh, CACNA2D3 / RFU, DTX4 / Fold change vs veh, DTX4 / RFU, TFCP2 / Fold change vs veh, TFCP2 / RFU, GMCL1 /// GMCL1P1 / Fold change vs veh, GMCL1 /// GMCL1P1 / RFU, AEBP2 / Fold change vs veh, AEBP2 / RFU, SNHG1 /// SNORD22 /// SNORD25 /// SNORD26 /// SNORD27 /// SNORD28 /// SNORD29 /// SNORD31 / Fold change vs veh, SNHG1 /// SNORD22 /// SNORD25 /// SNORD26 /// SNORD27 /// SNORD28 /// SNORD29 /// SNORD31 / Fold change (Aza/veh), C12orf56 (ProbeSet 11735607_a_at) / Fold change (ACY-1035/veh), C12orf56 (ProbeSet 11735607_a_at) / Fold change (Aza/veh), FGFR1OP (ProbeSet 11751329_s_at) / Fold change (ACY-1035/veh), FGFR1OP (ProbeSet 11751329_s_at) / Fold change (Aza/veh), VPS36 (ProbeSet 11739960_a_at) / Fold change (ACY-1035/veh), VPS36 (ProbeSet 11739960_a_at) / RFU SYPL1 (11715823_x_at) / Fold change /veh SYPL1 (11715823_x_at) / RFU IGFBP7 (11715501_s_at) / Fold change /veh IGFBP7 (11715501_s_at) / RFU REEP3 (11722064_at) / Fold change /veh REEP3 (11722064_at) / RFU IGLL1 (11728026_x_at) / Fold change /veh IGLL1 (11728026_x_at): dose or concentration left out as unconfirmed
Conditions: ProbeSet 11757113_a_at; LIST D

Nc1ncn([C@@H]2O[C@H](CO)[C@@H](O)[C@H]2O)c(=O)n1 [azacitidine]
RFU, SNHG1 /// SNORD22 /// SNORD25 /// SNORD26 /// SNORD27 /// SNORD28 /// SNORD29 /// SNORD31: 298.12 RFU
